Where two headings read alike, the source gives them in different places.
Experiments:
[1] = system: Rap1A processing; experiment: Rap1A processing assay in EJ3 / Ras transformed 3T3 cells (FIG. 16B); type: cell-based
Description: For Rap1A processing assays, 50 μg of cell lysates were electrophoresed as described above for Ras processing and transferred to nitrocellulose. These membranes were then blocked with 5% milk in Tris-buffered saline, pH 8.0, containing 0.5% Tween-20 and probed with anti-Rap1A (1 μg/ml in 5% milk/TBS-T; Santa Cruz Biotechnology, Santa Cruz, Calif.). Antibody reactions were visualized using peroxidase-conjugated goat anti-rabbit IgG (Oncogene) and ECL chemiluminescence as described above.

[2] = target: T1, FTase (Homo sapiens, UniProt P49356); experiment: FTase activity assay: transfer of [3H]farnesyl from FPP to recombinant H-Ras-CVLS, Daudi 60,000xg supernatant; type: biochemical; settings: for Selectivity: FTase over GGTase I; for IC50: read-out: FTase IC50; for GG/F: ratio GGTase I IC50 / FTase IC50
T1 construct: FTase and GGTase I activities from 60,000×g supernatants of human Burkitt lymphoma (Daudi) cells; endogenous in cells; host or cells: human Burkitt lymphoma (Daudi) cells, 60,000xg supernatant (partially purified)
T1 sequence (P49356 whole entry): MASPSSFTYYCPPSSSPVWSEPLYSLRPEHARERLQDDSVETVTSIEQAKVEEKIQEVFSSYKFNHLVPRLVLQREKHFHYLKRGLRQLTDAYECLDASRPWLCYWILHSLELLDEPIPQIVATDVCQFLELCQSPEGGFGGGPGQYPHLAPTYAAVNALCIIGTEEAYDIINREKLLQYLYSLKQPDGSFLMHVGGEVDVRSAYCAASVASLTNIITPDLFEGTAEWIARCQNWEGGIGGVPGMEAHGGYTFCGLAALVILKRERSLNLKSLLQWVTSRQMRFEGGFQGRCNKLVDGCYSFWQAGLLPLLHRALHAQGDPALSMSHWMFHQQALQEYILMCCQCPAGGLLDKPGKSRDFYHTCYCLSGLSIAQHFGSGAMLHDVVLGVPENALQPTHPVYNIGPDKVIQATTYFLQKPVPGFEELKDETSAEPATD
Description: FTase and GGTase I activities from 60,000×g supernatants of human Burkitt lymphoma (Daudi) cells (ATCC, Rockville, Md., USA) were assayed as described previously for FTase (41). Briefly, 100 μg of the supernatant was incubated in 50 mM Tris, pH 7.5, 50 μM ZnCl2, 20 mM KCl and 1 mM dithiothreitol (DTT).
Human Burkitt lymphoma (Daudi) cells (ATCC, Rockville, Md.) were grown in suspension in RPMI 1640 medium containing 10% fetal bovine serum (FBS) and 1% Pen-Strep in a humidified 10% CO2 incubator at 37° C. The cells were harvested and sonicated in 50 mM Tris, pH 7.5, 1 mM EDTA, 1 mM EGTA, 25 μg/ml leupeptin, 1 mM phenylmethylsulfonyl fluoride. Homogenates were then spun at 12,000×g and the resulting supernatant further spun at 60,000×g. The supernatant was assayed for both FTase and GGTase I. Briefly, 100 μg of the supernatants was incubated in 50 mM Tris, pH 7.5, 50 μM ZnCl2, 20 mM KCl, 3 mM MgCl2 and 1 mM DTT. […] FPP (625 nM; 16.3 Ci/mmol). For GGTase assays, the reaction was also incubated for 30 minutes at 37° C. but with recombinant H-Ras-CVLL (5 μM) and [^3 H] GGPP (525 nM; 19.0 Ci/mmol). The reaction was stopped and passed through glass fiber filters to separate free and incorporated label. For inhibition studies, the peptidomimetics were premixed with FTase or GGTase I prior to adding the remainder of the reaction mixture. […] Recombinant H-Ras-CVLL was prepared from bacteria (32).
FTase and GGTase I activities from 60,000×g supernatants of human Burkitt lymphoma (Daudi) cells (ATCC, Rockville, Md.) were assayed exactly as described previously for FTase (41).

[3] = target: T2, GGTase I (Homo sapiens, UniProt P53609); experiment: GGTase I activity assay: transfer of [3H]geranylgeranyl to recombinant H-Ras-CVLL, Daudi 60,000xg supernatant; type: biochemical
T2 construct: FTase and GGTase I activities from 60,000×g supernatants of human Burkitt lymphoma (Daudi) cells; endogenous in cells; host or cells: human Burkitt lymphoma (Daudi) cells, 60,000xg supernatant (partially purified)
T2 sequence (P53609 whole entry): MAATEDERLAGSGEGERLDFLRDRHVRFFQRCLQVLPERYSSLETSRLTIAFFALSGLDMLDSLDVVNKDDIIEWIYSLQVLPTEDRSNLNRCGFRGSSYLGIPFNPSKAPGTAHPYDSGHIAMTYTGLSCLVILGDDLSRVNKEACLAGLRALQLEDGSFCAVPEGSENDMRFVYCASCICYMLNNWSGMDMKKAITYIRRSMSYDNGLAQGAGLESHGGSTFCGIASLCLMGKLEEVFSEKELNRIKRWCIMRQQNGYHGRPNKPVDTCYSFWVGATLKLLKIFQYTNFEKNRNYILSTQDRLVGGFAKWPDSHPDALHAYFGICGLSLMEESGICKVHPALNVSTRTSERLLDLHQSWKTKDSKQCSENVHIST
Description: FTase and GGTase I activities from 60,000×g supernatants of human Burkitt lymphoma (Daudi) cells (ATCC, Rockville, Md., USA) were assayed as described previously for FTase (41). Briefly, 100 μg of the supernatant was incubated in 50 mM Tris, pH 7.5, 50 μM ZnCl2, 20 mM KCl and 1 mM dithiothreitol (DTT). The reaction was incubated at […] for 30 min with recombinant Ha-Ras-CVLS (11 μM) and [^3 H]FPP (625 nM; 16.3 Ci/mmol) for FTase, and recombinant Ha-Ras-CVLL (5 μM) and [^3 H]geranylgeranylpyrophosphate (525 nM; 19.0 Ci/mmol) for GGTase I. The peptidomimetics were mixed with FTase and GGTase before adding to the reaction mixture.
Human Burkitt lymphoma (Daudi) cells (ATCC, Rockville, Md.) were grown in suspension in RPMI 1640 medium containing 10% fetal bovine serum (FBS) and 1% Pen-Strep in a humidified 10% CO2 incubator at 37° C. The cells were harvested and sonicated in 50 mM Tris, pH 7.5, 1 mM EDTA, 1 mM EGTA, 25 μg/ml leupeptin, 1 mM phenylmethylsulfonyl fluoride. Homogenates were then spun at 12,000×g and the resulting supernatant further spun at 60,000×g. The supernatant was assayed for both FTase and GGTase I. Briefly, 100 μg of the supernatants was incubated in 50 mM Tris, pH 7.5, 50 μM ZnCl2, 20 mM KCl, 3 mM MgCl2 and 1 mM DTT. For FTase assays, the reaction was incubated at 37° C. for 30 minutes with recombinant H-Ras-CVLS (11 μM) and [^3 H] FPP (625 nM; 16.3 Ci/mmol). For GGTase assays, the reaction was also incubated for 30 minutes at 37° C. but with recombinant H-Ras-CVLL (5 μM) and [^3 H] GGPP (525 nM; 19.0 Ci/mmol). The reaction was stopped and passed through glass fiber filters to separate free and incorporated label. For inhibition studies, the peptidomimetics were premixed with FTase or GGTase I prior to adding the remainder of the reaction mixture. Recombinant H-Ras-CVLS was prepared as described previously (26) from bacteria (31). Recombinant H-Ras-CVLL was prepared from bacteria (32).
FTase and GGTase I activities from 60,000×g supernatants of human Burkitt lymphoma (Daudi) cells (ATCC, Rockville, Md.) were assayed exactly as described previously for FTase (41). Inhibition studies were performed by determining the ability of Ras CAAX peptidomimetics to inhibit the transfer of [^3 H]-farnesyl and [^3 H]-geranylgeranyl from [^3 H]FPP and [^3 H]GGPP to H-ras-CVLS and H-Ras-CVLL, respectively (41).

[4] = target: T1, FTase; experiment: Peptidomimetics farnesylation assay (silica gel TLC); type: biochemical; settings: Table 4; substrate for farnesylation, TLC
Description: The ability of human Burkitt lymphoma (Daudi) FTase to farnesylate peptides and peptidomimetics was determined as described previously (34, 35). Briefly, 25 μl of reaction mixture containing 50 μg of 60,000×g supernatants and 20 μM peptidomimetic in 50 mM Tris, pH 7.5, 50 μM ZnCl2, 20 mM KCl, 3 mM MgCl2, 1 mM DTT and 0.2% octylβ-D-glucoside was incubated for 30 minutes at 37° C., then spotted onto silica gel G TLC sheets (20×20 cm, Brinkmann Instruments), and developed with n-propanol/5 N ammonium hydroxide/water (6:1:1). The dried sheets were sprayed with En^3 Hance (DuPont NEN) and exposed to x-ray film for detection of [^3 H] farnesylated products.

[5] = system: H-Ras processing; experiment: Ras processing assay in H-RasF cells (NIH 3T3 transformed with oncogenic H-Ras-CVLS), immunoblot; type: cell-based; settings: whole cells; read-out: H-Ras processing IC50
Description: H-RasF cells (45) were seeded on day 0 in 100 mm Dishes (costar) in Dulbecco's modified Eagles medium (GIBCO) and allowed to grow to 40-60% confluency. […] On day 3, cells were washed one time with ice cold PBS and were collected and lysed by incubation for 30-60 min on ice in lysis buffer (41). Lysates were cleared (14,000 rpm, 4° C., 15 min) and supernatants collected. Equal amounts of lysate were separated on a 12.5% SDS-PAGE, transfered to nitrocellulose, and a western blot performed using a anti-Ras antibody (Y13-238, ATCC) or anti-Rap1A antibody (Santa Cruz Biotechnology, Santa Cruz, Calif.). Antibody reactions were visualized using peroxidase-conjugated goat anti-rat IgG for Y13-238 and peroxidase-conjugated goat anti-rabbit IgG for Rap1A and an enhanced chemiluminescence detection system (ECL; Amersham Corp.)
H-Ras cells (45) and K-Ras4B Cells (32) were kind gifts from Dr. Channing Der and Dr. Adrienne Cox (University of North Carolina, Chapel Hill). Means of obtaining these cell lines will be easily recognized by the skilled practitioner. Cells were seeded on day 0 in 100 mm dishes in Dulbecco's modified Eagles medium supplemented with 10% calf serum and 1% penicillin-streptomycin. […] On day 3, cells were washed and lysed in lysis buffer containing 50 mM HEPES, pH 7.5, 10 mM NaCl, 1% TX-100, 10% glycerol, 5 mM MgCl2, 1 mM EGTA, 25 μg/ml leupeptin, 2 mM PMSF, 2 mM Na3 VO4, 1 mg/ml soybean trypsin inhibitor, 10 μg/ml aprotinin, 6.4 mg/ml Sigma-104® phosphatase substrate. Lysates were cleared (14,000 rpm, 4° C., 15 min) and equal amounts of protein were separated on a 12.5% SDS-PAGE, transferred to nitrocellulose, and immunoblotted using an anti-Ras antibody (Y13-259, ATCC) or an anti-RapIA antibody (SC-65, Santa Cruz Biotechnology, Santa Cruz, Calif.). Antibody reactions were visualized using either peroxidase-conjugated goat anti-rat 1 gG (for Y13-259), or peroxidase-conjugated goat anti-rabbit 1 gG (for Rap1A) and an enhanced chemiluminescence detection (ECL, Amersham Corp.), as described previously (41).

[6] = system: Ras processing; experiment: Ras processing assay in EJ3 / Ras transformed 3T3 cells (FIG. 16A); type: cell-based
Description: EJ3 cells were treated with peptidomimetics or vehicle for 20-24 h. Cells were lysed in lysis buffer (10 mM Na2 HPO4, pH 7.25, 150 mM NaCl, 0.1% sodium dodecyl sulfate, 1% Triton X-100, 12 mM sodium deoxycholate, 1 mM NaF, 0.2% NaN3, 2 mM PMSF, 25 μg/ml leupeptin) and the lysates were cleared by spinning at 13,000 rpm for 15 minutes. Ras protein was immunoprecipitated overnight at 4° C. with 50 μg of anti-Ras antibody (Y13-259; hybridoma from ATCC, Rockville, Md.) along with 30 μl Protein A-agarose goat anti-rat IgG complex (oncogene Science, Uniondale, N.Y.). Immunoprecipitates were washed 4 times with lysis buffer and the bound proteins were released by heating for 5 minutes in 40 μl SDS-PAGE sample buffer and subsequently electrophoresed on a 12.5% SDS-PAGE.

[7] = Table 4, read-out: GGTase-I IC50
[8] = Table 1, read-out: GGTase I IC50

Row | Compound | Selectivity ([2]; Table 4) | IC50 ([2]; Table 4) | IC50 [3, 7] | Substrate [4] | GG/F ([2]; Table 1) | IC50 ([2]; Table 1) | IC50 [3, 8] | other results
1 | CSCC[C@H](NC(=O)c1ccc(NC[C@@H](N)CS)cc1)C(=O)O [FTI-249, 4-N-[2(R)-Amino-3-mercaptopropyl]aminobenzoyl methionine] | 15 | 300 nM | 4400 nM | – | 15 | 272 nM | 3970 nM | IC50 [5]: 100000 nM; inhibition of Ras processing ([6]; 200 μM): did not inhibit Ras processing; inhibition of Ras processing ([6]; FIG. 16A): did not inhibit Ras processing; selectivity for FTase over GGTase I [2]: 15 fold; IC50 [2]: 300 nM
2 | N[C@@H](CS)C(=O)NCc1cccc(-c2cccc(C(=O)O)c2)c1 [FTI-238, Cys-3-aminomethyl-3'-carboxybiphenyl] | > 1 | 100000 nM | > 100000 nM | no | – | – | – | –
3 | COC(=O)[C@H](CCSC)NC(=O)c1ccc(NC[C@@H](N)CS)cc1 [FTI-254, 4-N-[2(R)-Amino-3-mercaptopropyl]aminobenzoyl methionine methyl ester] | – | – | – | – | 19 | 1000 nM | 19000 nM | inhibition of Ras processing ([6]; 200 μM): inhibited FTase
4 | COC(=O)c1cccc(-c2ccc(NC[C@@H](N)CS)cc2)c1 [FTI-259, 4-N-[2(R)-Amino-3-mercaptopropyl]amino-3'-methoxycarbonylbiphenyl] | 109 | 917 nM | > 100000 nM | no | – | – | – | –
5 | CC[C@H](C)C(=O)O[C@H]1C[C@@H](C)C=C2C=C[C@H](C)[C@H](CC[C@@H]3C[C@@H](O)CC(=O)O3)[C@H]21 [lovastatin, reference compound] | – | – | – | – | – | – | – | inhibition of Rap1A processing [1]: inhibited the processing of Rap1A; inhibition of Ras processing ([6]; FIG. 16A): inhibited Ras processing
6 | COC(=O)C(CCSC)NC(=O)c1ccc(NC(=O)C(N)CS)cc1-c1ccccc1.Cl (centres unmarked) [FTI-274, HCl.cysteine-4-amino-2-phenylbenzoyl methionine methyl ester] | – | – | – | – | 15 | 2050 nM | 30000 nM | –
7 | HCl-cysteine-4-aminobenzoyl methionine [FTI-232] | 10 | 150 nM | 1500 nM | – | 6 | 213 nM | 1200 nM | selectivity for FTase over GGTase I [2]: 10 fold

More lines, main results first:

Row | Selectivity ([2]; Table 4) | IC50 ([2]; Table 4) | IC50 [3, 7] | Substrate [4] | Compound | GG/F ([2]; Table 1) | IC50 ([2]; Table 1) | IC50 [3, 8] | other results
8 | 141 | 710 nM | > 100000 nM | no | Cc1cccc(-c2ccc(NC[C@@H](N)CS)cc2)c1 [FTI-263, 4-N-[2(R)-Amino-3-mercaptopropyl]amino-3'-methylbiphenyl] | – | – | – | inhibition of Rap1A processing [1]: did not inhibit Rap1A processing
9 | – | – | > 100000 nM | no | N[C@@H](CS)CNc1ccc(-c2ccc(C(=O)O)cc2)cc1 [FTI-271, 4-N-[2(R)-Amino-3-mercaptopropyl]amino-4'-carboxybiphenyl] | – | – | – | inhibition of Rap1A processing [1]: did not inhibit Rap1A processing
10 | 93 | 1070 nM | > 100000 nM | no | N[C@@H](CS)CNc1ccc(-c2ccccc2)cc1 [FTI-268, 4-N-[2(R)Amino-3-Mercaptopropyl]aminobiphenyl] | – | – | – | –
11 | 187 | 30 nM | 5000 nM | – | N[C@@H](CS)CNc1ccc(-c2cccc(-c3nnn[nH]3)c2)cc1 [FTI-2102, red.Cys-4-amino-3'-tetrazolylbiphenyl] | – | – | – | –

— patent publication US5965539A, “Inhibitors of prenyl transferases” (Univeristy of Pittsburgh, priority 1996, dated 1999)
